Experimental data from US20240201189A1, “FLUORESCENT PROBE FOR USE IN DETECTION OF PANCREATIC CANCER” (The University of Tokyo, priority 2021, published 2024).
Several values for one entry are separate records, joined by “and”; a condition that tells them apart may be missing. Identical values can stand only once. Values belong to the molecule of their own block, whether it stands above or below them.

Tests used:
[1] = biological target: T1, Human recombinant DPP-IV (Homo sapiens, UniProt P27487); assay: Target enzyme search: change in FI of probe after adding DPP-IV; type: biochemical; settings: probe 1.0 μM; 2,000 seconds; ex/em 495 nm/525 nm; FIG. 5A
T1 construct: purchased Sigma-Aldrich D 4943
Experimental: (§1) It was considered that dipeptidyl peptidase 4 (DPP-IV) or a similar enzyme was a target enzyme overexpressed in pancreatic cancer tissue. First, the candidate fluorescent probe was examined whether DPP-IV or the similar enzyme was activated. Human recombinant DPP-IV (50 μL; D 4943, Sigma-Aldrich), DPP-VIII (1.0 μg; ab162872, abcam), and DPP-IX (1.0 μg; ab79621, abcam) were injected into 3.0 mL of a probe solution (1.0 μM) using F-7000 (Hitachi (Tokyo)), and a change in FI during 2,000 seconds was measured. Excitation and emission wavelengths were set to 495 and 525 nm, respectively.

[2] = tested on: pancreatic cancer tissue in surgically resected specimen; assay: Fluorescence imaging of cut surface of surgically resected pancreatic cancer specimens (TBR); type: cell-based, human
Experimental: Immediately after the pancreatic cancer specimen was extracted, the pancreatic cancer specimen was cut so as to include a maximum diameter of pancreatic cancer tissue. Next, the fluorescent probe described above (4 mL, 50 μM) was directly applied to the cut surface and fluorescence imaging was performed using Maestro in Vivo imaging system as described above. The accuracy of the fluorescence imaging was evaluated by a surgeon (RT) and a pathologist (MT) with reference to histopathological findings on the same plane. In addition, a tumor/background ratio (TBR) was also calculated by measuring the increase in average FI from 1 minute to 30 minutes after probe administration in carcinomatous and non-carcinomatous sites based on macroscopic/microscopic findings of the cut surface and corresponding fluorescence images.

[3] = biological target: T2, Human recombinant DPP-IX (Homo sapiens, UniProt Q86TI2); assay: Target enzyme search: change in FI of probe after adding DPP-IX; type: biochemical; settings: probe 1.0 μM; 2,000 seconds; ex/em 495 nm/525 nm; FIG. 5C
T2 construct: purchased abcam ab79621
Experimental: as §1

[4] = tested on: lysates prepared from tissue fragments of carcinomatous and non-carcinomatous sites (pancreatic cancer resected specimens); assay: Primary screening: increase in FI of probes mixed with lysates of carcinomatous and non-carcinomatous tissue; type: biochemical, human; settings: lysates from five patients; probe 1.0 μM; 60 minutes, 37° C.; FIG. 1A
Experimental: First, according to the procedure described in Non Patent Literatures 6 to 8, each of lysates prepared from tissue fragments of carcinomatous and non-carcinomatous sites was mixed with a fluorescent probe, an increased value of fluorescence intensity was measured, and a fluorescent probe as a candidate was selected. Briefly, 5 μL of a lysate (protein concentration: 0.20 mg/dL) was added dropwise to a well of a black 384 plate in which 15 μL of a library of dipeptide-HMRG compounds (Non Patent Literature 8) was arranged. Final concentrations of the candidate probe and the lysate protein were 1.0 μM and 0.050 mg/dL, respectively.
The fluorescence intensity (FI) of each sample was measured at 0 minutes and 60 minutes after mixing with Envision Multilabel Plate Reader (PerkinElmer, Massachusetts, USA) while performing incubation at 37° C. Excitation and emission wavelengths were set to 485 nm and 535 nm, respectively. An increase in FI was defined as follows.
(Increase in FI)=(FI after 60 minutes)−(FI after 0 minutes)
Probes with the top 10% difference or ratio in the increase in FI in the carcinomatous and non-carcinomatous lysates were selected as candidate probes and evaluated as follows.

T1 sequence (P27487 whole entry): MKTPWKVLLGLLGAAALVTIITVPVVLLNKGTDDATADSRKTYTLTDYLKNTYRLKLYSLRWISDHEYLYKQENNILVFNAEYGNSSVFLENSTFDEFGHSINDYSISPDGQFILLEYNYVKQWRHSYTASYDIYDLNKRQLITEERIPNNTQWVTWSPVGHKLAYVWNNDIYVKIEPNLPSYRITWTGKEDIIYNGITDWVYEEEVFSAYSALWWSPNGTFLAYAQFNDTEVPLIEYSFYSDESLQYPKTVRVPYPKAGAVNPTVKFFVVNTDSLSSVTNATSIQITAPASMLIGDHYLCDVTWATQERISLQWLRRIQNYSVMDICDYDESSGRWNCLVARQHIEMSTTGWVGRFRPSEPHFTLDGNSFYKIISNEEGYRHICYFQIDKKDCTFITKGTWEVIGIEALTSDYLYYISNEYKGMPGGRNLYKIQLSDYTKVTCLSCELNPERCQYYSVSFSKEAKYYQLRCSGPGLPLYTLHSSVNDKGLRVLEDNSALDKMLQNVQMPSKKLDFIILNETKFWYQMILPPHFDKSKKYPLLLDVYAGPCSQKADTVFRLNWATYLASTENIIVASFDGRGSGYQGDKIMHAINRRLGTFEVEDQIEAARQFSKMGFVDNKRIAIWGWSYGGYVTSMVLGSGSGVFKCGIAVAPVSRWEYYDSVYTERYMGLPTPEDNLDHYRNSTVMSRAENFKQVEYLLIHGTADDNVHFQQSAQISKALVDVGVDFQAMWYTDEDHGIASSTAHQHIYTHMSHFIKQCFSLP
T2 sequence (Q86TI2 whole entry): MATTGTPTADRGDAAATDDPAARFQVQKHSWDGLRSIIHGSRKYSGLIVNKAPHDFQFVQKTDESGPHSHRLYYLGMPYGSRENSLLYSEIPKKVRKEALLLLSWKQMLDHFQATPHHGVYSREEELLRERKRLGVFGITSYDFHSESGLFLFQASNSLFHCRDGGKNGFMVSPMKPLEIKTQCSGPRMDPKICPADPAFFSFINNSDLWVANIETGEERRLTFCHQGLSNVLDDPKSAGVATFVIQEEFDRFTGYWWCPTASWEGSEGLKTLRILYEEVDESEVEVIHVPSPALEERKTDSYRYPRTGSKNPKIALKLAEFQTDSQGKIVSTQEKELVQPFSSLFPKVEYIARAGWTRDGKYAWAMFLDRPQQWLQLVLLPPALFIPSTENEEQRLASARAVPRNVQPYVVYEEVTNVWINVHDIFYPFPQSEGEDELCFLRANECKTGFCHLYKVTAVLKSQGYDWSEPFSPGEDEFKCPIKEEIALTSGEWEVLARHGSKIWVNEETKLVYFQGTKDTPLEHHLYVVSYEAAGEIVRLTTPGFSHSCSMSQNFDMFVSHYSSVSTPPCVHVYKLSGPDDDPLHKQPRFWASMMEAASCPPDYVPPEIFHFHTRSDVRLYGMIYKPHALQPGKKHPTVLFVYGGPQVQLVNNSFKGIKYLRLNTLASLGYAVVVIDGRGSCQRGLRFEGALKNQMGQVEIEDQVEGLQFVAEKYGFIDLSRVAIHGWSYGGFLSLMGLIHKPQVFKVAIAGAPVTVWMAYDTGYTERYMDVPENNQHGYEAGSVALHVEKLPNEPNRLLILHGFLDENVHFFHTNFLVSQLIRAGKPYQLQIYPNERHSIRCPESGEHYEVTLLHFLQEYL

conversion of probe into fluorescent HMRG in reaction with DPP-IV [1]: converted into a highly fluorescent HMRG
conversion of probe into fluorescent HMRG in reaction with DPP-IX [3]: converted into a highly fluorescent HMRG
Structure (SMILES): NCC(=O)N1CCC[C@H]1C(=O)Nc1ccc2c(c1)Oc1cc(N)ccc1C21OCc2ccccc21 (stereo partly drawn) [GP-HMRG]
average TBR of the fluorescence images ([2]; 30 minutes after spraying, eight patients): 1.96 (range, 1.31 to 2.04)
TBR in the connective tissue surrounding the splenic artery ([2]; Patient No. 8, after preoperative chemotherapy, cancer invasion): 2.04
TBR of the main tumor ([2]; Patient No. 8, after preoperative chemotherapy, fibrosis and mucinous changes, few viable cancer cells): 1.13
time from which increase in fluorescence signal in carcinomatous tissue was confirmed ([2]; after topical administration): 1 min
TBR in patients with uniform fluorescence signal of carcinomatous tissue ([2]; four of eight patients (Patient Nos. 1, 2, 4 and 5)): > 1.9
A TBR ratio of FI ([2]; one value per patient (Patients 1-8), cut surface, increase in average FI from 1 to 30 minutes, probe 4 mL, 50 μM): 1.98 (2×) and 1.93 and 1.47 and 1.26 and 1.13 and 3.44 and 2.06
increase in FI in carcinomatous tissue as opposed to non-carcinomatous tissue (lysates) [4]: significant increase in FI in carcinomatous tissue

Structure (SMILES): CC(C)C[C@H](N)C(=O)N1CCC[C@H]1C(=O)Nc1ccc2c(c1)Oc1cc(N)ccc1C21OCc2ccccc21 (stereo partly drawn) [LP-HMRG]
increase in FI in carcinomatous tissue as opposed to non-carcinomatous tissue (lysates) [4]: significant increase in FI in carcinomatous tissue

Structure (SMILES): Nc1ccc2c(c1)Oc1cc(NC(=O)[C@@H]3CCCN3C(=O)[C@@H]3CCCN3)ccc1C21OCc2ccccc21 (stereo partly drawn) [PP-HMRG]
increase in FI in carcinomatous tissue as opposed to non-carcinomatous tissue (lysates) [4]: significant increase in FI in carcinomatous tissue

Structure (SMILES): Nc1ccc2c(c1)Oc1cc(NC(=O)[C@@H]3CCCN3C(=O)[C@@H](N)Cc3ccc(O)cc3)ccc1C21OCc2ccccc21 (stereo partly drawn) [YP-HMRG]
increase in FI in carcinomatous tissue as opposed to non-carcinomatous tissue (lysates) [4]: significant increase in FI in carcinomatous tissue
